Laboratory results from paper PMC6273687, “Design, Synthesis and Biological Evaluation of Novel Primaquine-Cinnamic Acid Conjugates of the Amide and Acylsemicarbazide Type” (Molecules, 2016).

Columns and labels:
[1] = test system: CEM acute lymphoblastic leukemia cell line; experiment: Growth inhibition of tumor cell lines in vitro (MTT / cell counting); assay type: cell-based; settings: Homo sapiens, 96 h, 4 days
Procedure: (§1) The experiments were carried out on a murine lymphocytic leukemia cell line (L1210) and five human tumor cell lines: CEM, HeLa, NCI-H460, SW 620 and MCF-7. The cells were cultured as monolayers and maintained in Dulbecco′s modified Eagle medium (DMEM) supplemented with 10% fetal bovine serum (FBS), 2 mM L-glutamine, 100 U/mL penicillin and 100 μg/mL streptomycin in a humidified atmosphere with 5% CO2 at 37 °C.
(§2) The growth inhibition activity of the compounds was assessed as described previously. The cell lines were inoculated onto a series of standard 96-well microtiter plates on day 0, at 1.5 × 10^4 cells/mL (SW 620, H460) to 2.5 × 10^4 cells/mL (MCF-7, CEM and L1210), depending on the growth of the tumor cell line. Test agents were then added in ten-fold dilutions (10^−8 to 10^−4 M) and the cell cultures were then incubated for 3–4 days with 5% CO2 at 37 °C. Working dilutions of the compounds were freshly prepared on the day of testing.
(§3) After 3 (MCF-7, SW 620, NCI-H460) or 4 days (CEM, L1210), the cell growth rate was evaluated first light microscopically, then by viable cell counting and/or by performing the MTT assay, which detects dehydrogenase activity in live, not dead, cells. The absorbance (A) was measured on a microplate reader at 570 nm. The absorbance is directly proportional to the number of living, metabolically active cells. […] If however, all of the tested concentrations produce PGs exceeding the respective reference level of effect (e.g., PG value of 50), then the highest tested concentration is assigned as the default value, which is preceded by a “>” sign. Minimum two individual experiments were carried out and each test point was performed in quadruplicate.

[2] = test system: HeLa cervical carcinoma cell line; experiment: as above; assay type: cell-based; settings: Homo sapiens
Procedure: as §1, §2, §3

[3] = test system: L1210 murine lymphocytic leukemia cell line; experiment: as above; assay type: cell-based; settings: Mus musculus, 96 h; L1210, 4 days
Procedure: as §1, §2, §3

[4] = test system: NCI-H460 lung carcinoma cell line; experiment: as above; assay type: cell-based, human; settings: Homo sapiens, 72 h; NCI-H460, 3 days
Procedure: as §1, §2, §3

[5] = test system: colon carcinoma HCT 116; experiment: Growth inhibition of tumor cell lines in vitro (reference drugs); assay type: cell-based; settings: Homo sapiens; colon carcinoma HCT 116 (footnote b, printed in SW 620 column)
[6] = test system: SW 620 colon carcinoma cell line; experiment: Growth inhibition of tumor cell lines in vitro (MTT / cell counting); assay type: cell-based; settings: Homo sapiens, 72 h; SW 620, 3 days
Procedure: as §1, §2, §3

[7] = test system: MCF-7 breast carcinoma cell line; experiment: as above; assay type: cell-based, human; settings: Homo sapiens, MCF7, 72 h; MCF-7, 3 days
Procedure: as §1, §2, §3

[8] = Interaction with the stable radical DPPH (reducing ability)
Procedure: To a solution of DPPH in absolute ethanol the appropriate volume of the compounds (50 or 100 µM final concentrations) dissolved in DMSO was added. The absorbance was recorded at 517 nm after 20 and 60 min at room temperature. The experiments were repeated at least in triplicate and the standard deviation of absorbance was less than 10% of the mean. NDGA was used under the same experimental conditions as a reference compound.

[9] = molecular target: T1, soybean lipoxygenase (LOX) (Glycine max, UniProt P08170); experiment: LOX inhibition study in vitro; assay type: biochemical; settings: values in parentheses in Table 3
T1 construct: purchased Sigma-Aldrich
T1 sequence (P08170 1-839): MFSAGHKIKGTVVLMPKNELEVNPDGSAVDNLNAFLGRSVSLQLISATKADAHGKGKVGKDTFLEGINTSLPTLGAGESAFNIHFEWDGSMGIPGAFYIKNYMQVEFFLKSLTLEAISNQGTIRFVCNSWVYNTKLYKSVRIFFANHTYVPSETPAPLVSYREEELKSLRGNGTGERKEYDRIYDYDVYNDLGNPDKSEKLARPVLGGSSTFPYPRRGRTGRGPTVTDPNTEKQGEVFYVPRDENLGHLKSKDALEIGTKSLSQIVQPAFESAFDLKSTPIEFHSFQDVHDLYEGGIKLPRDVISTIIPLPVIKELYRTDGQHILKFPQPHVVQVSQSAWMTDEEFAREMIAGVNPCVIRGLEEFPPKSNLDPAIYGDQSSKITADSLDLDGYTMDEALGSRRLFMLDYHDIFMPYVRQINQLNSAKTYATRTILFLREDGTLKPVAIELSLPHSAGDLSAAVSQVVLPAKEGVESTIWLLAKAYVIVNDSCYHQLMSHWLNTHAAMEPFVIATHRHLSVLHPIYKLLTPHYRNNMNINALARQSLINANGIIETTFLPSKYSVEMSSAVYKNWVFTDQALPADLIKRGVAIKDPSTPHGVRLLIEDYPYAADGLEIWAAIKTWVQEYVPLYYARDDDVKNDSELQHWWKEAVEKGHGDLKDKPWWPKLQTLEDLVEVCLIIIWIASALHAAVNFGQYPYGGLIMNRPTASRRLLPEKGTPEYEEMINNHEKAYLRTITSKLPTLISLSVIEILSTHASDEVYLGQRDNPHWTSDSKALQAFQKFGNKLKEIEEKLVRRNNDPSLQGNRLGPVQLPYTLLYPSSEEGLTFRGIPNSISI
Procedure: LOX inhibitory assay in vitro was accomplished as described previously. The test compounds (stock solutions 10 mM in DMSO) were incubated at room temperature with sodium linoleate (c = 0.1 mM) and 0.2 mL of LOX enzyme solution (1/9 × 10^−4 m/V in saline). The conversion of sodium linoleate to 13-hydroperoxylinoleic acid was measured at 234 nm and compared with the reference inhibitor. Several concentrations were used for the IC50 determination.

[10] = Inhibition of linoleic acid peroxidation (AAPH-induced); settings: 5 × 10^−5 M
Procedure: For initiating the lipid peroxidation free radical AAPH was used. Final solution in the UV cuvette consisted of 10 μL linoleate sodium solution (c = 16 mM), 0.93 mL phosphate buffer (c = 0.05 M), pH 7.4, thermostated at 37 °C. 50 μL AAPH solution (c = 40 mM) and 10 μL of the tested compounds were added. The experiment was performed at 37 °C under air. The oxidation of linoleic acid sodium salt was monitored at 234 nm. The assays were repeated at least in triplicate and the standard deviation of absorbance was less than 10% of the mean. Trolox was used under the same experimental conditions as a reference compound.

[11] = test system: HEL cells; experiment: Cytotoxicity assay, alteration of HEL cell morphology (MCC); assay type: cell-based, human; settings: 3 days
Procedure: Cytotoxicity measurements were based on the inhibition of HEL cell growth. Cells were seeded at 5 × 10^3 cells/well into 96-well microtiter plates. Then, medium containing different concentrations of the test compounds was added. After 3 days of incubation at 37 °C, the alteration of morphology of the cell cultures was recorded light microscopically. Cytotoxicity was expressed as MCC.

[12] = test system: lung adenocarcinoma A549; experiment: Growth inhibition of tumor cell lines in vitro (reference drug); assay type: cell-based; settings: Homo sapiens; lung adenocarcinoma A549 (footnote c, printed in NCI-H460 column)

SMILES	IC50 [1] [µM]	IC50 [2] [µM]	IC50 [3] [µM]	IC50 [4] [µM]	IC50 [6] [µM]	IC50 [7] [µM]	IC50 [9] [µM]	IC50 [12] [µM]	IC50 [5] [µM]	DPPH-reducing ability RA (%) ([8]; 1 × 10^−4 M, 20 min)	DPPH-reducing ability RA (%) ([8]; 1 × 10^−4 M, 60 min)	DPPH-reducing ability RA (%) ([8]; 5 × 10^−5 M, 20 min)	DPPH-reducing ability RA (%) ([8]; 5 × 10^−5 M, 60 min)	LP Inhibition (%) [10] [%]	MCC (minimum cytotoxic concentration) [11]
O=c1[nH]cc(F)c(=O)[nH]1 [5-FU, 5-fluorouracil, reference compound]	18 ± 5	0.54 ± 0.1	0.5 ± 0.2	3 ± 0.3					4 ± 0.7						
COc1cc(NC(C)CCCN)c2ncccc2c1 (stereo not shown) [PQ, primaquine]				30 ± 7		28 ± 10			20 ± 6						

More lines, main results first:

IC50 [1] [µM]	IC50 [2] [µM]	IC50 [3] [µM]	IC50 [4] [µM]	IC50 [6] [µM]	IC50 [7] [µM]	IC50 [9] [µM]	IC50 [12] [µM]	SMILES	IC50 [5] [µM]	DPPH-reducing ability RA (%) ([8]; 1 × 10^−4 M, 20 min)	DPPH-reducing ability RA (%) ([8]; 1 × 10^−4 M, 60 min)	DPPH-reducing ability RA (%) ([8]; 5 × 10^−5 M, 20 min)	DPPH-reducing ability RA (%) ([8]; 5 × 10^−5 M, 60 min)	LP Inhibition (%) [10] [%]	MCC (minimum cytotoxic concentration) [11]
1.3 ± 0.7	2.4 ± 0.2	1.7 ± 0.4	> 100	> 100	0.4 ± 0.2	50		COc1ccc(/C=C/C(=O)NNC(=O)NCCCC(C)Nc2cc(OC)cc3cccnc23)cc1 (stereo not shown) [7c, (E)-1-(3-(4-Methoxyphenyl)acryloyl)-4-(4-(6-methoxyquinolin-8-ylamino)pentyl)semicarbazide]		39	100	54	100	89	around 20 μΜ
0.9 ± 0.7	2.7 ± 1.2	1.6 ± 0.7	20 ± 0.7	21 ± 4	0.2 ± 0.2	70		COc1cc(NC(C)CCCNC(=O)NNC(=O)/C=C/c2ccc(Cl)cc2)c2ncccc2c1 (stereo not shown) [7g, (E)-1-(3-(4-Chlorophenyl)acryloyl)-4-(4-(6-methoxyquinolin-8-ylamino)pentyl)semicarbazide]		100	100	66	100	89	around 20 μΜ
3.2 ± 1.7	7.1 ± 2.6	4.2 ± 2.4		7.1 ± 1.9	3.9 ± 1.6		6.1 ± 0.6	CNC(=O)c1cc(Oc2ccc(NC(=O)Nc3ccc(Cl)c(C(F)(F)F)c3)cc2)ccn1 [SOR, sorafenib, reference compound]							
